What was measured:
Type in all cases: in vivo
Echinochloa crusgalli = experiment: Post-emergence test experiment, Echinochloa crusgalli; conditions: 1000 g a.i./ha, 3 weeks in greenhouse, fresh weight inhibition
How it was run: (§1)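 Test compounds dissolve in acetone, receive tween-80 and a methyl oleate emulsible concentrate synergist (1.5 liters per hectare), then are diluted in water and sprayed onto 2-3 leaf stage plants. After 3 weeks of greenhouse culture, fresh weight inhibition is determined.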

[1] = system: Monocotyledonous and dicotyledonous weed seeds and main crop seeds; experiment: Post-emergence test experiment, other weeds and crops (Table 4, 1000 g a.i./ha); conditions: 3 weeks in greenhouse, fresh weight inhibition
How it was run: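 Growth inhibition is scored on fresh weight. Spray solutions were made in acetone with tween-80, diluted in water, plus 1.5 L/ha methyl oleate emulsible concentrate. Plants from greenhouse-grown weed and crop seeds were treated post-emergence at 2-3 leaves, 2 weeks after sowing.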

Digitaria sanguinalis = experiment: Post-emergence test experiment, Digitaria sanguinalis; conditions: 1000 g a.i./ha, 3 weeks in greenhouse, fresh weight inhibition
How it was run: as §1

CC(Oc1nc(F)c(Cl)c(N)c1Cl)C(=O)OCC(F)(F)C(F)(F)F (stereo not shown) [Compound 2-282] was tested, and the “Activity level (growth inhibition rate), Echinochloa crusgalli” value (Echinochloa crusgalli) was 5 (Level 5: the growth inhibition rate is greater than 85%), the “Activity level (growth inhibition rate), Abutilon theophrasti Medic.” value [1] was 5 (Level 5: the growth inhibition rate is greater than 85%) and the “Activity level (growth inhibition rate), Galium aparine” value [1] was 5 (Level 5: the growth inhibition rate is greater than 85%). The “Activity level (growth inhibition rate), Monochoria Vaginalis” value [1] was 5 (Level 5: the growth inhibition rate is greater than 85%) and the “Activity level (growth inhibition rate), Digitaria sanguinalis” value (Digitaria sanguinalis) was 5 (Level 5: the growth inhibition rate is greater than 85%).
CC(Oc1nc(F)c(Cl)c(N)c1Cl)C(=O)OCCN (stereo not shown) [Compound 2-284] was tested, and the “Activity level (growth inhibition rate), Echinochloa crusgalli” value (Echinochloa crusgalli) was 5 (Level 5: the growth inhibition rate is greater than 85%), the “Activity level (growth inhibition rate), Abutilon theophrasti Medic.” value [1] was 5 (Level 5: the growth inhibition rate is greater than 85%) and the “Activity level (growth inhibition rate), Galium aparine” value [1] was 5 (Level 5: the growth inhibition rate is greater than 85%). For the same compound, the “Activity level (growth inhibition rate), Monochoria Vaginalis” value [1] was 5 (Level 5: the growth inhibition rate is greater than 85%) and the “Activity level (growth inhibition rate), Digitaria sanguinalis” value (Digitaria sanguinalis) was 5 (Level 5: the growth inhibition rate is greater than 85%).
For CC(Oc1nc(F)c(Cl)c(N)c1Cl)C(=O)OCC=CCl (stereo not shown) [Compound 2-285], the “Activity level (growth inhibition rate), Echinochloa crusgalli” value (Echinochloa crusgalli) was 5 (Level 5: the growth inhibition rate is greater than 85%), the “Activity level (growth inhibition rate), Abutilon theophrasti Medic.” value [1] was 5 (Level 5: the growth inhibition rate is greater than 85%) and the “Activity level (growth inhibition rate), Galium aparine” value [1] was 5 (Level 5: the growth inhibition rate is greater than 85%). For the same compound, the “Activity level (growth inhibition rate), Monochoria Vaginalis” value [1] was 5 (Level 5: the growth inhibition rate is greater than 85%) and the “Activity level (growth inhibition rate), Digitaria sanguinalis” value (Digitaria sanguinalis) was 5 (Level 5: the growth inhibition rate is greater than 85%).
With CC(Oc1nc(F)c(Cl)c(N)c1Cl)C(=O)OCC(Cl)=C(Cl)Cl (stereo not shown) [Compound 2-286] the “Activity level (growth inhibition rate), Echinochloa crusgalli” value (Echinochloa crusgalli) was 5 (Level 5: the growth inhibition rate is greater than 85%), the “Activity level (growth inhibition rate), Abutilon theophrasti Medic.” value [1] was 5 (Level 5: the growth inhibition rate is greater than 85%) and the “Activity level (growth inhibition rate), Galium aparine” value [1] was 5 (Level 5: the growth inhibition rate is greater than 85%). For the same compound, the “Activity level (growth inhibition rate), Monochoria Vaginalis” value [1] was 5 (Level 5: the growth inhibition rate is greater than 85%) and the “Activity level (growth inhibition rate), Digitaria sanguinalis” value (Digitaria sanguinalis) was 5 (Level 5: the growth inhibition rate is greater than 85%).
For C=CCOC(=O)C(C)(C)OC(=O)C(C)Oc1nc(F)c(Cl)c(N)c1Cl (stereo not shown) [Compound 2-288], the “Activity level (growth inhibition rate), Echinochloa crusgalli” value (Echinochloa crusgalli) was 5 (Level 5: the growth inhibition rate is greater than 85%), the “Activity level (growth inhibition rate), Abutilon theophrasti Medic.” value [1] was 5 (Level 5: the growth inhibition rate is greater than 85%) and the “Activity level (growth inhibition rate), Galium aparine” value [1] was 5 (Level 5: the growth inhibition rate is greater than 85%). For the same compound, the “Activity level (growth inhibition rate), Monochoria Vaginalis” value [1] was 5 (Level 5: the growth inhibition rate is greater than 85%) and the “Activity level (growth inhibition rate), Digitaria sanguinalis” value (Digitaria sanguinalis) was 5 (Level 5: the growth inhibition rate is greater than 85%).
For CC(Oc1nc(F)c(Cl)c(N)c1Cl)C(=O)OCC(=O)N(C)C (stereo not shown) [Compound 2-289], the “Activity level (growth inhibition rate), Echinochloa crusgalli” value (Echinochloa crusgalli) was 5 (Level 5: the growth inhibition rate is greater than 85%), the “Activity level (growth inhibition rate), Abutilon theophrasti Medic.” value [1] was 5 (Level 5: the growth inhibition rate is greater than 85%) and the “Activity level (growth inhibition rate), Galium aparine” value [1] was 5 (Level 5: the growth inhibition rate is greater than 85%). For the same compound, the “Activity level (growth inhibition rate), Monochoria Vaginalis” value [1] was 5 (Level 5: the growth inhibition rate is greater than 85%) and the “Activity level (growth inhibition rate), Digitaria sanguinalis” value (Digitaria sanguinalis) was 5 (Level 5: the growth inhibition rate is greater than 85%).
COC(=O)CSC(=O)C(C)Oc1nc(F)c(Cl)c(N)c1Cl (stereo not shown) [Compound 2-290] was tested, and the “Activity level (growth inhibition rate), Echinochloa crusgalli” value (Echinochloa crusgalli) was 5 (Level 5: the growth inhibition rate is greater than 85%), the “Activity level (growth inhibition rate), Abutilon theophrasti Medic.” value [1] was 5 (Level 5: the growth inhibition rate is greater than 85%) and the “Activity level (growth inhibition rate), Galium aparine” value [1] was 5 (Level 5: the growth inhibition rate is greater than 85%). For the same compound, the “Activity level (growth inhibition rate), Monochoria Vaginalis” value [1] was 5 (Level 5: the growth inhibition rate is greater than 85%) and the “Activity level (growth inhibition rate), Digitaria sanguinalis” value (Digitaria sanguinalis) was 5 (Level 5: the growth inhibition rate is greater than 85%).
In the case of CCC(OC)OC(=O)C(C)Oc1nc(F)c(Cl)c(N)c1Cl (stereo not shown) [Compound 2-291], the “Activity level (growth inhibition rate), Echinochloa crusgalli” value (Echinochloa crusgalli) is reported as 5 (Level 5: the growth inhibition rate is greater than 85%), the “Activity level (growth inhibition rate), Abutilon theophrasti Medic.” value [1] is reported as 5 (Level 5: the growth inhibition rate is greater than 85%) and the “Activity level (growth inhibition rate), Galium aparine” value [1] is reported as 5 (Level 5: the growth inhibition rate is greater than 85%). The “Activity level (growth inhibition rate), Monochoria Vaginalis” value [1] was 5 (Level 5: the growth inhibition rate is greater than 85%) and the “Activity level (growth inhibition rate), Digitaria sanguinalis” value (Digitaria sanguinalis) was 5 (Level 5: the growth inhibition rate is greater than 85%).
For COC(=O)C(C)OC(=O)C(C)Oc1nc(F)c(Cl)c(N)c1Cl (stereo not shown) [Compound 2-295], the “Activity level (growth inhibition rate), Echinochloa crusgalli” value (Echinochloa crusgalli) was 5 (Level 5: the growth inhibition rate is greater than 85%), the “Activity level (growth inhibition rate), Abutilon theophrasti Medic.” value [1] was 5 (Level 5: the growth inhibition rate is greater than 85%) and the “Activity level (growth inhibition rate), Galium aparine” value [1] was 5 (Level 5: the growth inhibition rate is greater than 85%). The “Activity level (growth inhibition rate), Monochoria Vaginalis” value [1] was 5 (Level 5: the growth inhibition rate is greater than 85%) and the “Activity level (growth inhibition rate), Digitaria sanguinalis” value (Digitaria sanguinalis) was 5 (Level 5: the growth inhibition rate is greater than 85%).
With COC(=O)OC(C)OC(=O)C(C)Oc1nc(F)c(Cl)c(N)c1Cl (stereo not shown) [Compound 2-296] the “Activity level (growth inhibition rate), Echinochloa crusgalli” value (Echinochloa crusgalli) was 5 (Level 5: the growth inhibition rate is greater than 85%), the “Activity level (growth inhibition rate), Abutilon theophrasti Medic.” value [1] was 5 (Level 5: the growth inhibition rate is greater than 85%) and the “Activity level (growth inhibition rate), Galium aparine” value [1] was 5 (Level 5: the growth inhibition rate is greater than 85%). The “Activity level (growth inhibition rate), Monochoria Vaginalis” value [1] was 5 (Level 5: the growth inhibition rate is greater than 85%) and the “Activity level (growth inhibition rate), Digitaria sanguinalis” value (Digitaria sanguinalis) was 5 (Level 5: the growth inhibition rate is greater than 85%).
For CC(Oc1nc(F)c(Cl)c(N)c1Cl)C(=O)OC1CCCO1 (stereo not shown) [Compound 2-297], the “Activity level (growth inhibition rate), Echinochloa crusgalli” value (Echinochloa crusgalli) was 5 (Level 5: the growth inhibition rate is greater than 85%), the “Activity level (growth inhibition rate), Abutilon theophrasti Medic.” value [1] was 5 (Level 5: the growth inhibition rate is greater than 85%) and the “Activity level (growth inhibition rate), Galium aparine” value [1] was 5 (Level 5: the growth inhibition rate is greater than 85%). For the same compound, the “Activity level (growth inhibition rate), Monochoria Vaginalis” value [1] was 5 (Level 5: the growth inhibition rate is greater than 85%) and the “Activity level (growth inhibition rate), Digitaria sanguinalis” value (Digitaria sanguinalis) was 5 (Level 5: the growth inhibition rate is greater than 85%).
